Laboratory results: patent US20100105655A1, “NOVEL COMPOUNDS 515” (ASTRAZENECA AB, priority 2008, published 2010)
pIC50: −log10 of the molar value.

The compounds below were run against T1, IGFR kinase (Homo sapiens, UniProt P08069) (assay: Enzyme assay (c), IGFR kinase, Caliper LabChip). Details: 30 nM IGFR kinase, 6 uM ATP, 3 uM peptide mix; read-out: IGFR IC50.
T1 construct: purchased Millipore
Format: biochemical

T1 sequence (P08069 31-1367): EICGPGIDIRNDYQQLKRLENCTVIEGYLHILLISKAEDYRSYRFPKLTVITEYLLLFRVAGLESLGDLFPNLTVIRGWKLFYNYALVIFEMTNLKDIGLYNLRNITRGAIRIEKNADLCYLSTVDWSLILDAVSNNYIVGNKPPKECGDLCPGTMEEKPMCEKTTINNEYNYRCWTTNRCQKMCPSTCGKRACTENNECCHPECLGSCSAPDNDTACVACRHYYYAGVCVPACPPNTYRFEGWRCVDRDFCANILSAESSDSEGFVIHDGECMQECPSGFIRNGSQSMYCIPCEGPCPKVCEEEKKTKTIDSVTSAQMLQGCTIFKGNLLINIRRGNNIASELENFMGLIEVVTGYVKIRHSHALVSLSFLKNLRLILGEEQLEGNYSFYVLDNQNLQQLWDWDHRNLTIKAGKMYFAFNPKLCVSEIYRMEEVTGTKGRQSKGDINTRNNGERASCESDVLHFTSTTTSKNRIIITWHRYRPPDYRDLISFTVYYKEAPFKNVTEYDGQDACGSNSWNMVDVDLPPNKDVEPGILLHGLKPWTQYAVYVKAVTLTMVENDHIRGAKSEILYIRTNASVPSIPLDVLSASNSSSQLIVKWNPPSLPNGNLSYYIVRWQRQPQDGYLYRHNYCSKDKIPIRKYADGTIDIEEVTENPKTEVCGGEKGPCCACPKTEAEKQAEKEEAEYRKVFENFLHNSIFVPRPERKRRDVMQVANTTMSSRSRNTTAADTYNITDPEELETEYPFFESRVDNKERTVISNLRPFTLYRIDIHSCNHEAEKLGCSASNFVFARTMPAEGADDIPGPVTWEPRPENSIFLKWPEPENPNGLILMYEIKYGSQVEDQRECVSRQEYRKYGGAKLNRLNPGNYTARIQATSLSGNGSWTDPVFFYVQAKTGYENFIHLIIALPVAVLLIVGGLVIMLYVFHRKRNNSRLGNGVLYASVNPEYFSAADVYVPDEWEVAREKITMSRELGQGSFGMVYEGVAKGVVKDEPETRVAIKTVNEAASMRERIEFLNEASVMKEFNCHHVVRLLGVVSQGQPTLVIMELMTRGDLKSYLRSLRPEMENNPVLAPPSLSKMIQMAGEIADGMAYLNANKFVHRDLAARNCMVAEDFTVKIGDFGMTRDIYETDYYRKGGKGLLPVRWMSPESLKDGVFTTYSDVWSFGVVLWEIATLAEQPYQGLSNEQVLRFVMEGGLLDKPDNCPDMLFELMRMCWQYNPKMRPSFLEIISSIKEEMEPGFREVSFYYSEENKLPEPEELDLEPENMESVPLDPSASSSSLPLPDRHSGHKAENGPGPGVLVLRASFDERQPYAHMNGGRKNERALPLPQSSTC

Going from `COc1cc(C2CCNCC2)ccc1Nc1ncc(Cl)c(-c2cnc3ccc(F)cn23)n1` [Example 247, 5-chloro-4-(6-fluoroimidazo[1,2-a]pyridin-3-yl)-N-[2-methoxy-4-(4-piperidyl)phenyl]pyrimidin-2-amine] to `COc1cc(O[C@@H]2CCNC2)ccc1Nc1ncc(Cl)c(-c2cnc3ccccn23)n1` [Example 6.5, 5-chloro-4-imidazo[1,2-a]pyridin-3-yl-N-[2-methoxy-4-[(3R)-pyrrolidin-3-yl]oxy-phenyl]pyrimidin-2-amine], the pIC50 falls from 8.52 to 7.96 (0.56 log units). The first is the more potent here.

Compared with `COc1cc(N2C[C@@H]3C[C@H]2CN3C(C)=O)ccc1Nc1ncc(Cl)c(-c2cnn3ccccc23)n1` [Example 241, 1-[(1S,4S)-2-[4-[(5-chloro-4-pyrazolo[1,5-a]pyridin-3-yl-pyrimidin-2-yl)amino]-3-methoxy-phenyl]-2,5-diazabicyclo[2.2.1]heptan-5-yl]ethanone], `COc1cc(N2CCN(C(=O)[C@H](C)N)CC2)ccc1Nc1ncc(Cl)c(-c2cnn3ccccc23)n1` [Example 132, (2S)-2-amino-1-[4-[4-[(5-chloro-4-pyrazolo[1,5-a]pyridin-3-yl-pyrimidin-2-yl)amino]-3-methoxy-phenyl]piperazin-1-yl]propan-1-one] is 1.08 log units higher in pIC50: 7.44 for the first, 8.52 for the second. The second is the more potent here.

Compared with `COc1cc(N2CCN(CCO)[C@H](C)C2)ccc1Nc1ncc(F)c(-c2cnc3ccccn23)n1` [Example 272, 2-[(2R)-4-[4-[(5-fluoro-4-imidazo[1,2-a]pyridin-3-yl-pyrimidin-2-yl)amino]-3-methoxy-phenyl]-2-methyl-piperazin-1-yl]ethanol], `COc1cc(N2CCN(C[C@@H](C)O)CC2)ccc1Nc1ncc(F)c(-c2cnc3ccccn23)n1` [Example 90, (2R)-1-[4-[4-[(5-fluoro-4-imidazo[1,2-a]pyridin-3-yl-pyrimidin-2-yl)amino]-3-methoxy-phenyl]piperazin-1-yl]propan-2-ol] is 0.86 log units higher in pIC50: 6.57 for the first, 7.43 for the second.

`COc1cc(O[C@@H]2CCN(S(C)(=O)=O)C2)ccc1Nc1ncc(Cl)c(-c2cnc3ccccn23)n1` [Example 11, 5-chloro-4-imidazo[1,2-a]pyridin-3-yl-N-[2-methoxy-4-[(3R)-1-methylsulfonylpyrrolidin-3-yl]oxy-phenyl]pyrimidin-2-amine] and `COc1cc(OC2CN(C(=O)CO)C2)ccc1Nc1ncc(Cl)c(-c2cnc3ccccn23)n1` [Example 27.3, 1-[3-[4-[(5-chloro-4-imidazo[1,2-a]pyridin-3-yl-pyrimidin-2-yl)amino]-3-methoxy-phenoxy]azetidin-1-yl]-2-hydroxy-ethanone] are within 0.2 log units of each other in pIC50: 7.74 for the first, 7.66 for the second.

`COc1cc(N2CCN(C(=O)N3CCNCC3)CC2)ccc1Nc1ncc(Cl)c(-c2cnc3ccccn23)n1` [Example 47.3, [4-[4-[(5-chloro-4-imidazo[1,2-a]pyridin-3-yl-pyrimidin-2-yl)amino]-3-methoxy-phenyl]piperazin-1-yl]-piperazin-1-yl-methanone] and `COc1cc(N2CCN(C(=O)[C@@H]3CCCCN3)CC2)ccc1Nc1ncc(Cl)c(-c2cnc3ccccn23)n1` [Example 24.2, [4-[4-[(5-chloro-4-imidazo[1,2-a]pyridin-3-yl-pyrimidin-2-yl)amino]-3-methoxy-phenyl]piperazin-1-yl]-[(2S)-2-piperidyl]methanone] are the same in pIC50: 8.22 for the first, 8.22 for the second.

Compared with `COc1cc(CC(=O)N2CCNCC2)ccc1Nc1ncc(Cl)c(-c2cnc3ccccn23)n1` [Example 34, 2-[4-[(5-chloro-4-imidazo[1,2-a]pyridin-3-yl-pyrimidin-2-yl)amino]-3-methoxy-phenyl]-1-piperazin-1-yl-ethanone], `COc1cc(N2CCNCC2)ccc1Nc1ncc(C)c(-c2cnc3ccccn23)n1` [Example 98, 4-imidazo[1,2-a]pyridin-3-yl-N-(2-methoxy-4-piperazin-1-yl-phenyl)-5-methyl-pyrimidin-2-amine] is 0.65 log units higher in pIC50: 7.01 for the first, 7.66 for the second.

Going from `COc1cc(C2CCN(C(C)=O)CC2)ccc1Nc1ncc(C)c(-c2cnc3c(F)cccn23)n1` [Example 196, 1-[4-[4-[[4-(8-fluoroimidazo[1,2-a]pyridin-3-yl)-5-methyl-pyrimidin-2-yl]amino]-3-methoxy-phenyl]-1-piperidyl]ethanone] to `COc1cc(N(C)CC(=O)N2CCNCC2)ccc1Nc1ncc(Cl)c(-c2cnc3c(F)cccn23)n1` [Example 227, 2-[4-[[5-chloro-4-(8-fluoroimidazo[1,2-a]pyridin-3-yl)pyrimidin-2-yl]amino]-3-methoxy-N-methyl-anilino]-1-piperazin-1-yl-ethanone], the pIC50 falls from 7.89 to 7.32 (0.57 log units).

Compared with `COc1cc(OC[C@@H]2CCCN2)ccc1Nc1ncc(Cl)c(-c2cnc3ccccn23)n1` [Example 6.2, 5-chloro-4-imidazo[1,2-a]pyridin-3-yl-N-[2-methoxy-4-[[(2S)-pyrrolidin-2-yl]methoxy]phenyl]pyrimidin-2-amine], `COc1cc(OC[C@H]2CCCN2)ccc1Nc1ncc(OC)c(-c2cnc3ccccn23)n1` [Example 96, 4-imidazo[1,2-a]pyridin-3-yl-5-methoxy-N-[2-methoxy-4-[[(2R)-pyrrolidin-2-yl]methoxy]phenyl]pyrimidin-2-amine] is 0.95 log units lower in pIC50: 7.85 for the first, 6.90 for the second.

Compared with `COc1cc(N2CC3CN(CCO)CC(C2)O3)ccc1Nc1ncc(C)c(-c2cnc3ccccn23)n1` [Example 232, 2-[7-[4-[(4-imidazo[1,2-a]pyridin-3-yl-5-methyl-pyrimidin-2-yl)amino]-3-methoxy-phenyl]-9-oxa-3,7-diazabicyclo[3.3.1]nonan-3-yl]ethanol], `COc1cc(N2CCN(CCO)CC2)ccc1Nc1ncc(C)c(-c2cnc3ccccn23)n1` [Example 101, 2-[4-[4-[(4-imidazo[1,2-a]pyridin-3-yl-5-methyl-pyrimidin-2-yl)amino]-3-methoxy-phenyl]piperazin-1-yl]ethanol] is 1.01 log units lower in pIC50: 7.64 for the first, 6.63 for the second. The first is the more potent here.

`COc1cc(N2CCN(C(=O)C3CCC(=O)N3)CC2)ccc1Nc1ncc(Cl)c(-c2cnc3ccccn23)n1` (centres unmarked) [Example 25.1, 5-[4-[4-[(5-chloro-4-imidazo[1,2-a]pyridin-3-yl-pyrimidin-2-yl)amino]-3-methoxy-phenyl]piperazine-1-carbonyl]pyrrolidin-2-one] and `COc1cc(N2CCN(C(=O)[C@@H]3C[C@@H](O)CN3)CC2)ccc1Nc1ncc(Cl)c(-c2cnc3ccccn23)n1` [Example 24.9, [4-[4-[(5-chloro-4-imidazo[1,2-a]pyridin-3-yl-pyrimidin-2-yl)amino]-3-methoxy-phenyl]piperazin-1-yl]-[(2S,4R)-4-hydroxypyrrolidin-2-yl]methanone] are within 0.2 log units of each other in pIC50: 8.05 for the first, 8.22 for the second.

Going from `COc1cc(N2CC[C@@H](O)C2)ccc1Nc1ncc(Cl)c(-c2cnc3ccccn23)n1` [Example 3.49, (3R)-1-[4-[(5-chloro-4-imidazo[1,2-a]pyridin-3-yl-pyrimidin-2-yl)amino]-3-methoxy-phenyl]pyrrolidin-3-ol] to `COc1cc(N2CCN(C[C@@H](C)O)CC2)ccc1Nc1ncc(Cl)c(-c2cnc3ccccn23)n1` [Example 51, (2R)-1-[4-[4-[(5-chloro-4-imidazo[1,2-a]pyridin-3-yl-pyrimidin-2-yl)amino]-3-methoxy-phenyl]piperazin-1-yl]propan-2-ol], the pIC50 rises from 7.72 to 8.10 (0.38 log units).

`COCCN(C)Cc1ccc(Nc2ncc(Cl)c(-c3cnc4ccccn34)n2)c(OC)c1` [Example 21.13, 5-chloro-4-imidazo[1,2-a]pyridin-3-yl-N-[2-methoxy-4-[(2-methoxyethyl-methyl-amino)methyl]phenyl]pyrimidin-2-amine] and `COc1cc(CN(C)CCO)ccc1Nc1ncc(Cl)c(-c2cnc3ccccn23)n1` [Example 21.2, 2-[[4-[(5-chloro-4-imidazo[1,2-a]pyridin-3-yl-pyrimidin-2-yl)amino]-3-methoxy-phenyl]methyl-methyl-amino]ethanol] are within 0.2 log units of each other in pIC50: 7.49 for the first, 7.43 for the second.

First: COc1cc(C)c(Nc2ncc(Br)c(-c3cnc4ccccn34)n2)cc1OC [Example 124, 5-bromo-N-(4,5-dimethoxy-2-methyl-phenyl)-4-imidazo[1,2-a]pyridin-3-yl-pyrimidin-2-amine]
Second: COc1cc(N2CCN(CCO)CC2)c(C)cc1Nc1ncc(Cl)c(-c2cnc3ccccn23)n1 [Example 279, 2-[4-[4-[(5-chloro-4-imidazo[1,2-a]pyridin-3-yl-pyrimidin-2-yl)amino]-5-methoxy-2-methyl-phenyl]piperazin-1-yl]ethanol]
The pIC50 of the first is 0.59 log units lower: 7.51 for the first, 8.10 for the second.

Compared with `CNCC(=O)N1CCN(c2ccc(OC)c(Nc3ncc(Cl)c(-c4cnc5ccccn45)n3)c2)CC1` [Example 145, 1-[4-[3-[(5-chloro-4-imidazo[1,2-a]pyridin-3-yl-pyrimidin-2-yl)amino]-4-methoxy-phenyl]piperazin-1-yl]-2-(methylamino)ethanone], `CCNCC(=O)N1CCN(c2ccc(Nc3ncc(Cl)c(-c4cnc5ccccn45)n3)c(OC)c2)CC1` [Example 24.11, 1-[4-[4-[(5-chloro-4-imidazo[1,2-a]pyridin-3-yl-pyrimidin-2-yl)amino]-3-methoxy-phenyl]piperazin-1-yl]-2-ethylamino-ethanone] is 0.59 log units higher in pIC50: 7.23 for the first, 7.82 for the second.

First: COc1cc(N2CCN(C(=O)[C@H](C)OC)CC2)ccc1Nc1ncc(Cl)c(-c2cnc3ccccn23)n1 [Example 25.3, (2S)-1-[4-[4-[(5-chloro-4-imidazo[1,2-a]pyridin-3-yl-pyrimidin-2-yl)amino]-3-methoxy-phenyl]piperazin-1-yl]-2-methoxy-propan-1-one]
Second: COc1cc(OC2CN(C(=O)[C@@H](C)OC)C2)ccc1Nc1ncc(Cl)c(-c2cnc3ccccn23)n1 [Example 27.4, (2R)-1-[3-[4-[(5-chloro-4-imidazo[1,2-a]pyridin-3-yl-pyrimidin-2-yl)amino]-3-methoxy-phenoxy]azetidin-1-yl]-2-methoxy-propan-1-one]
The pIC50 of the first is 0.23 log units higher: 7.85 for the first, 7.62 for the second. The first is the more potent here.

Compared with `COc1cc(N2CCNCC2)ccc1Nc1ncc(Cl)c(-c2cnc3c(F)cc(F)cn23)n1` [Example 265, 5-chloro-4-(6,8-difluoroimidazo[1,2-a]pyridin-3-yl)-N-(2-methoxy-4-piperazin-1-yl-phenyl)pyrimidin-2-amine], `COc1cc(N2C[C@@H](C)N(C(C)=O)C[C@@H]2C)ccc1Nc1ncc(Cl)c(-c2cnc3ccccn23)n1` [Example 3.35, 1-[(2R,5S)-4-[4-[(5-chloro-4-imidazo[1,2-a]pyridin-3-yl-pyrimidin-2-yl)amino]-3-methoxy-phenyl]-2,5-dimethyl-piperazin-1-yl]ethanone] is 0.22 log units lower in pIC50: 8.22 for the first, 8.00 for the second. The first is the more potent here.
